From patent US8658646B2, “Pyrrolopyrazine kinase inhibitors” (Hoffmann-LaRoche Inc., priority 2011, dated 2014)
pIC50: −log10 of the molar value.

Each molecule was assayed against T1, JAK3: Recombinant human kinase domain (Homo sapiens, UniProt P52333) (assay: Determination of IC50 of Janus Kinase (JAK) inhibition, radioactive end-point 33P-ATP assay, JAK3). Conditions: ATP 1.5 uM, peptide 50 uM, 20 minutes, read-out: JAK3-INHIB-DR/v1~NO ADDITIVE~Enzyme_Conc = 100.
T1 construct: JAK3: Recombinant human kinase domain from Millipore (Cat #14-629) or prepared; purchased Millipore 14-629
T1 sequence (P52333 822-1111 limits assumed): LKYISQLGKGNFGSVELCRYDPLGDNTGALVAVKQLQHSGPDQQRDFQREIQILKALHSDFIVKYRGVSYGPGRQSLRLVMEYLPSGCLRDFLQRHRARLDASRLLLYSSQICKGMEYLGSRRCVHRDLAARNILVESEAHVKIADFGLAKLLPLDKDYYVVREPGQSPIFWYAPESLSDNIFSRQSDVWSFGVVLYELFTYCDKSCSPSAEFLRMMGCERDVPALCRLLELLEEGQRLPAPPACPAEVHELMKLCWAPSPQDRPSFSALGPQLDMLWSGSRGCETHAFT
Assay type: biochemical

Row | SMILES | pIC50
1 | C[C@@H](NC(=O)c1c[nH]c2ncc(-c3nn(Cc4ccccn4)c4cc(Cl)ccc34)nc12)C(=O)N1CC(C#N)C1 [Example I-233, 2-(6-Chloro-1-pyridin-2-ylmethyl-1H-indazol-3-yl)-5H-pyrrolo[2,3-b]pyrazine-7-carboxylic acid [(R)-2-(3-cyano-azetidin-1-yl)-1-methyl-2-oxo-ethyl]-amide] | 8.89
2 | C[C@H](CS(C)(=O)=O)NC(=O)c1c[nH]c2ncc(-c3nn(C)c4cc(Cl)ccc34)nc12 [Example I-105, 2-(6-Chloro-1-methyl-1H-indazol-3-yl)-5H-pyrrolo[2,3-b]pyrazine-7-carboxylic acid ((R)-2-methanesulfonyl-1-methyl-ethyl)-amide] | 7.26
3 | C[C@H](Cn1cccn1)NC(=O)c1c[nH]c2ncc(-c3nn(C)c4cc(F)ccc34)nc12 [Example I-133, 2-(6-Fluoro-1-methyl-1H-indazol-3-yl)-5H-pyrrolo[2,3-b]pyrazine-7-carboxylic acid ((R)-1-methyl-2-pyrazol-1-yl-ethyl)-amide] | 7.25
4 | C[C@@H](NC(=O)c1c[nH]c2ncc(-c3nn(C)c4cc(Cl)ccc34)nc12)[C@H]1C[C@H]1C#N (single isomer, unassigned) [Example I-207] | 8.26
5 | COC[C@H](C)NC(=O)c1c[nH]c2ncc(-c3nn(Cc4ccccn4)c4cc(F)ccc34)nc12 [Example I-240, 2-(6-Fluoro-1-pyridin-2-ylmethyl-1H-indazol-3-yl)-5H-pyrrolo[2,3-b]pyrazine-7-carboxylic acid ((S)-2-methoxy-1-methyl-ethyl)-amide] | 9.21
6 | Cn1nc(-c2cnc3[nH]cc(C(=O)N[C@@H](C(=O)N4CCC(C#N)CC4)C4CC4)c3n2)c2ccccc21 [Example I-1] | 8.76
7 | Cn1nc(-c2cnc3[nH]cc(C(=O)N[C@@H](C(=O)N4CCC(C#N)CC4)C4CC4)c3n2)c2cc(Cl)c(Cl)cc21 [Example I-67, 2-(5,6-Dichloro-1-methyl-1H-indazol-3-yl)-5H-pyrrolo[2,3-b]pyrazine-7-carboxylic acid [(R)-2-(4-cyano-piperidin-1-yl)-1-cyclopropyl-2-oxo-ethyl]-amide] | 9.32
8 | Cc1ccc2c(-c3cnc4[nH]cc(C(=O)N[C@H](C)C(=O)N5CC(C#N)C5)c4n3)nn(C)c2n1 [Example I-89, 2-(1,6-Dimethyl-1H-pyrazolo[3,4-b]pyridin-3-yl)-5H-pyrrolo[2,3-b]pyrazine-7-carboxylic acid [(R)-2-(3-cyano-azetidin-1-yl)-1-methyl-2-oxo-ethyl]-amide] | 8.96
9 | CCC[C@@H](NC(=O)c1c[nH]c2ncc(-c3nn(C)c4cc(F)ccc34)nc12)C(=O)N1CC(F)C1 [Example I-59, 2-(6-Fluoro-1-methyl-1H-indazol-3-yl)-5H-pyrrolo[2,3-b]pyrazine-7-carboxylic acid [(R)-1-(3-fluoro-azetidine-1-carbonyl)-butyl]-amide] | 8.50
10 | C[C@@H](NC(=O)c1c[nH]c2ncc(-c3nn(CC#N)c4cc(Cl)ccc34)nc12)C(=O)N1CC(C#N)C1 [Example I-93, 2-(6-Chloro-1-cyanomethyl-1H-indazol-3-yl)-5H-pyrrolo[2,3-b]pyrazine-7-carboxylic acid [(R)-2-(3-cyano-azetidin-1-yl)-1-methyl-2-oxo-ethyl]-amide] | 9.11
11 | C[C@@H](NC(=O)c1c[nH]c2ncc(-c3nn(CCO)c4cc(Cl)ccc34)nc12)C(=O)N1CC(C#N)C1 [Example I-90, 2-[6-Chloro-1-(2-hydroxy-ethyl)-1H-indazol-3-yl]-5H-pyrrolo[2,3-b]pyrazine-7-carboxylic acid [(R)-2-(3-cyano-azetidin-1-yl)-1-methyl-2-oxo-ethyl]-amide] | 8.42
12 | C[C@H](CC(=O)N1CCCC1)NC(=O)c1c[nH]c2ncc(-c3nn(C)c4cc(Cl)ccc34)nc12 [Example I-72, 2-(6-Chloro-1-methyl-1H-indazol-3-yl)-5H-pyrrolo[2,3-b]pyrazine-7-carboxylic acid ((R)-1-methyl-3-oxo-3-pyrrolidin-1-yl-propyl)-amide] | 6.55
13 | Cn1nc(-c2cnc3[nH]cc(C(=O)NC(C)(C)CO)c3n2)c2ccc(F)cc21 [Example I-363, 2-(6-Fluoro-1-methyl-1H-indazol-3-yl)-5H-pyrrolo[2,3-b]pyrazine-7-carboxylic acid (2-hydroxy-1,1-dimethyl-ethyl)-amide] | < 6.00
14 | C[C@@H](NC(=O)c1c[nH]c2ncc(-c3nn(C)c4cc(Cl)ccc34)nc12)C(=O)N1CC[C@@H](F)C1 [Example I-119, 2-(6-Chloro-1-methyl-1H-indazol-3-yl)-5H-pyrrolo[2,3-b]pyrazine-7-carboxylic acid [(R)-2-((R)-3-fluoro-pyrrolidin-1-yl)-methyl-2-oxo-ethyl]-amide] | 8.44
15 | CC(C)NC(=O)c1c[nH]c2ncc(-c3nn(CC4CC4)c4cc(Cl)ccc34)nc12 [Example I-309, 2-(6-Chloro-1-cyclopropylmethyl-1H-indazol-3-yl)-5H-pyrrolo[2,3-b]pyrazine-7-carboxylic acid isopropylamide] | 7.54

The remaining lines, values ahead:

Row | pIC50 | SMILES
16 | 8.40 | CC1CCCCC1NC(=O)c1c[nH]c2ncc(-c3nn(C)c4cc(Cl)ccc34)nc12 (stereo not shown) [Example I-153, 2-(6-Chloro-1-methyl-1H-indazol-3-yl)-5H-pyrrolo[2,3-b]pyrazine-7-carboxylic acid (2-methyl-cyclohexyl)-amide]
17 | 8.15 | CC(C)NC(=O)c1c[nH]c2ncc(-c3nn(C)c4cc(Cl)ccc34)nc12 [Example I-108, 2-(6-Chloro-1-methyl-1H-indazol-3-yl)-5H-pyrrolo[2,3-b]pyrazine-7-carboxylic acid isopropylamide]
18 | 7.56 | C[C@@H](NC(=O)c1c[nH]c2ncc(-c3nn(C)c4cc(F)ccc34)nc12)c1cccc(Br)c1 [Example I-215, 2-(6-Fluoro-1-methyl-1H-indazol-3-yl)-5H-pyrrolo[2,3-b]pyrazine-7-carboxylic acid [(R)-1-(3-bromo-phenyl)-ethyl]-amide]
19 | 9.07 | C[C@@H](NC(=O)c1c[nH]c2ncc(-c3nn(C)c4ccsc34)nc12)C(=O)N1CC(C#N)C1 [Example I-99, 2-(1-Methyl-1H-thieno[3,2-c]pyrazol-3-yl)-5H-pyrrolo[2,3-b]pyrazine-7-carboxylic acid [(R)-2-(3-cyano-azetidin-1-yl)-1-methyl-2-oxo-ethyl]-amide]
20 | 8.96 | COC[C@@H](NC(=O)c1c[nH]c2ncc(-c3nn(C)c4cc(Cl)ccc34)nc12)C(=O)N1CC(F)C1 [Example I-174, 2-(6-Chloro-1-methyl-1H-indazol-3-yl)-5H-pyrrolo[2,3-b]pyrazine-7-carboxylic acid [(R)-2-(3-fluoro-azetidin-1-yl)-1-methoxymethyl-2-oxo-ethyl]-amide]
21 | 8.56 | C[C@@H](NC(=O)c1c[nH]c2ncc(-c3nn(C)c4cc(Cl)ccc34)nc12)C(=O)N1CC(F)C1 [Example I-120, 2-(6-Chloro-1-methyl-1H-indazol-3-yl)-5H-pyrrolo[2,3-b]pyrazine-7-carboxylic acid [(R)-2-(3-fluoro-azetidin-1-yl)-1-methyl-2-oxo-ethyl)-amide]
22 | 7.11 | Cn1nc(-c2cnc3[nH]cc(C(=O)N[C@H]4CCC[C@H](C(N)=O)C4)c3n2)c2ccc(Cl)cc21 (relative stereo) [Example I-155, 2-(6-Chloro-1-methyl-1H-indazol-3-yl)-5H-pyrrolo[2,3-b]pyrazine-7-carboxylic acid (trans-3-carbamoyl-cyclohexyl)-amide]
